Values of other authors in US20120046321A1, “METHODS OF TREATING ATRIAL FIBRILLATION WITH P38 INHIBITOR COMPOUNDS” (INTERMUNE, INC., priority 2005, published 2012).

Test system: canine model, VTP-induced CHF
Details: Li et al., Circulation 2001; cited from earlier work

CCOC(=O)[C@H](CCc1ccccc1)N[C@@H](C)C(=O)N1CCC[C@H]1C(=O)O [enalapril]
Ang II concentration: reduction | Arrhythmogenic atrial remodeling: less | ERK activation: reduction
